ChEMBL document CHEMBL1201862, “PubChem BioAssay data set” (2004)
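Test compounds were applied to cells in 96-well plates for 48 hours at 5 doses. GI50 = concentration required for 50% inhibition of growth.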 The source made the active and inactive calls. Cut-off read from the data, not from the text of the source: active = GI50 up to about 1.1 µM and inactive = higher.

Key:
Experiment in all cases: NCI tumour cell line growth inhibition, 48 h
KM-20L2 = test system: KM-20L2
DLD-1 = test system: DLD-1
SNB-78 = test system: SNB-78
M19-MEL = test system: M19-MEL
LXFL 529 = test system: LXFL 529
RXF 631 = test system: RXF 631
DMS-273 = test system: DMS-273
XF498 = test system: XF498
HOP-18 = test system: HOP-18

| SMILES | GI50 (KM-20L2) | GI50 (DLD-1) | GI50 (SNB-78) | GI50 (M19-MEL) | GI50 (LXFL 529) | GI50 (RXF 631) | GI50 (DMS-273) | GI50 (XF498) | GI50 (HOP-18) |
| --- | --- | --- | --- | --- | --- | --- | --- | --- | --- |
| COC(=O)C(Cc1c[nH]c2ccccc12)NC(=O)C(Cc1c[nH]c2ccccc12)NC(=O)OCc1ccccc1 (stereo unspecified) | 18.2 µM (inactive) | 18.5 µM (inactive) | 25.8 µM (inactive) | 18.4 µM (inactive) | 16.7 µM (inactive) | 24 µM (inactive) | 16 µM (inactive) | 14.8 µM (inactive) |  |
| CCOC(=O)C1N(S(=O)(=O)c2ccc(C)cc2)CCC12c1ccccc1N(C(C)=O)C2c1ccc(OC)c(OC)c1 (stereo unspecified) | > 100 µM (inactive) | 78.2 µM (inactive) | > 100 µM (inactive) | > 100 µM (inactive) | > 100 µM (inactive) |  | > 100 µM (inactive) | 21.7 µM (inactive) |  |
| O=C(CCC(=O)C(C(=O)c1ccccc1)c1ccccc1)Nc1cccc(C(F)(F)F)c1 (stereo unspecified) | > 100 µM (inactive) | > 100 µM (inactive) | > 100 µM (inactive) | > 100 µM (inactive) | > 100 µM (inactive) |  | > 100 µM (inactive) | > 100 µM (inactive) | > 100 µM (inactive) |
| COCOCc1cc(OCc2ccccc2)c(OC)cc1Br | > 100 µM (inactive) | > 100 µM (inactive) | > 100 µM (inactive) | > 100 µM (inactive) |  |  | 64.6 µM (inactive) | > 100 µM (inactive) | > 100 µM (inactive) |
| O=C(Nc1c(O)[nH]c(=S)[nH]c1=O)c1ccccc1 | > 100 µM (inactive) | > 100 µM (inactive) | > 100 µM (inactive) | > 100 µM (inactive) | > 100 µM (inactive) |  |  |  | > 100 µM (inactive) |
| O=C(NCC#CCO)C(F)(F)F |  | > 100 µM (inactive) | > 100 µM (inactive) |  |  | > 100 µM (inactive) | > 100 µM (inactive) | > 100 µM (inactive) |  |
| COc1ccc(-c2onc(-c3ccc([N+](=O)[O-])cc3)c2C2=NCCN2)cc1 | > 100 µM (inactive) | 74.1 µM (inactive) | 67.3 µM (inactive) | > 100 µM (inactive) | 35.5 µM (inactive) |  |  | 66.7 µM (inactive) | 87.5 µM (inactive) |
| N#CC(C#N)=c1c2nsnc2c(=C(C#N)C#N)c2nsnc12 | 1.8 µM (inactive) | 2.03 µM (inactive) | 1.74 µM (inactive) |  | 1.63 µM (inactive) |  | 1.57 µM (inactive) |  | 2.66 µM (inactive) |
| CCCCCCCCCCCCCCCCCCNC(=O)OCC(CNS(=O)(=O)CCC[n+]1cccc2ccccc21)COC (stereo unspecified) | 0.776 µM (active) | 2.85 µM (inactive) | 1.23 µM (inactive) | 1.2 µM (inactive) | 1.21 µM (inactive) |  | 0.251 µM (active) | 1.43 µM (inactive) | 3.32 µM (inactive) |
| Cc1nc2c(N)ncnc2o1 | > 100 µM (inactive) | > 100 µM (inactive) | > 100 µM (inactive) | > 100 µM (inactive) | > 100 µM (inactive) | > 100 µM (inactive) | > 100 µM (inactive) |  | > 100 µM (inactive) |
| COc1c2c(cc3c1C(=O)Cc1ccc4c(c1CN(C)CC3)OCO4)OCO2 | 38.2 µM (inactive) | > 100 µM (inactive) | > 100 µM (inactive) | > 100 µM (inactive) |  | 44.8 µM (inactive) |  |  | 20.7 µM (inactive) |
| COc1ccc2c(C(=O)O)cc3ccccc3c2c1OC | 22.8 µM (inactive) | 30.9 µM (inactive) | 16.9 µM (inactive) | 21.3 µM (inactive) | 17.1 µM (inactive) |  | 23.5 µM (inactive) | 15.8 µM (inactive) | 15.5 µM (inactive) |
| O=[N+]([O-])C(=C(c1ccccc1)c1ccccc1)[N+](=O)[O-] | 17.2 µM (inactive) | 3.46 µM (inactive) | > 10 µM (inactive) |  | 15.6 µM (inactive) |  | 4.53 µM (inactive) |  |  |
| Cc1nc2c(n1CCC(C)C)C(=O)c1ccccc1C2=O | 28.5 µM (inactive) | 11.1 µM (inactive) | 28.1 µM (inactive) | 14.5 µM (inactive) | 13.1 µM (inactive) |  | 11 µM (inactive) | 17.2 µM (inactive) |  |
| CN/N=C(\C)CC(=O)Nc1cccc(Cl)c1C | > 100 µM (inactive) | > 100 µM (inactive) | > 100 µM (inactive) | > 100 µM (inactive) | > 100 µM (inactive) | > 100 µM (inactive) | 53.7 µM (inactive) | > 100 µM (inactive) | > 100 µM (inactive) |
| O=C(/C=C/c1ccc(OCCCOc2ccc(/C=C/C(=O)c3ccccc3)cc2)cc1)c1ccccc1 | > 100 µM (inactive) | > 100 µM (inactive) |  | > 100 µM (inactive) | > 100 µM (inactive) | 51.2 µM (inactive) | > 100 µM (inactive) |  |  |
| C=CCN1CCC23c4c5ccc(O)c4OC2C(=NN=C2CCC4(O)C6Cc7ccc(O)c8c7C4(CCN6CC=C)C2O8)CCC3(O)C1C5 (stereo unspecified) | 23.3 µM (inactive) | 38.7 µM (inactive) | 27.2 µM (inactive) |  | 32.1 µM (inactive) | 20.5 µM (inactive) | 19.1 µM (inactive) | 17.3 µM (inactive) | > 100 µM (inactive) |
| Cc1cc2c(=O)c3ccc(Cl)cc3[nH]c2c(C(=O)O)c1C | > 100 µM (inactive) | > 100 µM (inactive) | > 100 µM (inactive) | > 100 µM (inactive) | > 100 µM (inactive) |  |  | > 100 µM (inactive) | > 100 µM (inactive) |
| CC(C)(C)C(=O)Nc1ccccc1Br | > 100 µM (inactive) | > 100 µM (inactive) |  | > 100 µM (inactive) | > 100 µM (inactive) |  | > 100 µM (inactive) | > 100 µM (inactive) |  |
| Cc1cc(N)c2cc(NC(=O)CCCCCCCCC(=O)Nc3ccc4nc(C)cc(N)c4c3)ccc2n1 | 29.1 µM (inactive) | > 100 µM (inactive) | > 100 µM (inactive) | 15.4 µM (inactive) | 4.37 µM (inactive) |  | 7.19 µM (inactive) | > 27.2 µM (inactive) | > 100 µM (inactive) |
| CC(=O)/C=C/c1ccc(C2CC(C)=Nc3c(ccc4c3C(=O)c3ccccc3C4=O)N2)cc1 (stereo unspecified) | > 100 µM (inactive) | 24.7 µM (inactive) | > 100 µM (inactive) | > 62.5 µM (inactive) |  |  | 66.1 µM (inactive) | > 100 µM (inactive) | > 80.9 µM (inactive) |
| COc1cc(O)c2c(c1)C(=O)C=C(Cl)C2=O | > 100 µM (inactive) | 30.3 µM (inactive) | > 100 µM (inactive) | > 100 µM (inactive) | > 100 µM (inactive) | 51.4 µM (inactive) | > 100 µM (inactive) | 42.2 µM (inactive) | > 100 µM (inactive) |
| CCOC(=O)CCn1cnc(N)n1 | > 100 µM (inactive) | > 100 µM (inactive) | > 100 µM (inactive) | > 100 µM (inactive) | > 100 µM (inactive) | > 100 µM (inactive) | > 100 µM (inactive) | > 100 µM (inactive) | > 100 µM (inactive) |
| Cc1ccccc1NC(=O)C(=O)c1c(O)c2ccc(O)cc2oc1=O | > 100 µM (inactive) | > 100 µM (inactive) |  | > 100 µM (inactive) | > 100 µM (inactive) |  | > 100 µM (inactive) | > 100 µM (inactive) | > 100 µM (inactive) |
| CCC(C)CCOC(=O)c1ccc(/N=C\c2ccc(/C=N/c3ccc(C(=O)OCCC(C)CC)cc3)cc2)cc1 (stereo unspecified) | > 100 µM (inactive) | > 100 µM (inactive) | > 100 µM (inactive) |  | > 100 µM (inactive) |  | > 100 µM (inactive) |  | > 100 µM (inactive) |
| C=CC1=CC(C)C[C@]1(O)C(=O)OC (stereo partly specified) | > 100 µM (inactive) | < 0.01 µM (active) | > 100 µM (inactive) | < 0.01 µM (active) | < 0.01 µM (active) | < 0.01 µM (active) | < 0.01 µM (active) | < 0.01 µM (active) | > 100 µM (inactive) |
| CCCN(CCC)c1c([N+](=O)[O-])cc(C(N)=O)cc1[N+](=O)[O-] |  | > 100 µM (inactive) |  | 48.5 µM (inactive) | > 100 µM (inactive) |  | 58.9 µM (inactive) | 81.3 µM (inactive) |  |
| CC12CCC(=O)N1c1ccc([N+](=O)[O-])cc1N2 (stereo unspecified) | > 100 µM (inactive) | > 100 µM (inactive) | > 100 µM (inactive) | > 100 µM (inactive) | > 100 µM (inactive) |  | > 100 µM (inactive) |  | > 100 µM (inactive) |
| O=C(O)c1ccccc1NS(=O)(=O)c1ccc([N+](=O)[O-])cc1 | > 100 µM (inactive) |  | > 100 µM (inactive) |  | > 100 µM (inactive) | > 100 µM (inactive) | > 100 µM (inactive) | > 100 µM (inactive) | > 100 µM (inactive) |
